One experiment concerns the target Carbonic anhydrase 2 (Homo sapiens, UniProt P00918). The experiment in a line: Inhibition of human carbonic anhydrase 2 preincubated for 15 mins by CO2 hydration stopped-flow assay.
Another experiment deals with Carbonic anhydrase 9 (Homo sapiens, UniProt Q16790). The experiment is described as follows: Inhibition of human carbonic anhydrase 9 catalytic domain preincubated for 15 mins by CO2 hydration stopped-flow assay.
The next experiment concerns the target Carbonic anhydrase 1 (Homo sapiens, UniProt P00915). The experiment is described as follows: Inhibition of human carbonic anhydrase 1 preincubated for 15 mins by CO2 hydration stopped-flow assay.
The next experiment has as its system Oryctolagus cuniculus. The experiment is described as follows: Ocular hypotensive activity in sterile hypertonic saline injected hypertensive New Zealand white rabbit assessed as reduction in intraocular pressure at 1 % administered as eye drops up to 240 mins post injection. In kind it is functional, organism-based.

This passage reports Ki and Activity results from ChEMBL document CHEMBL4425107, “Monothiocarbamates Strongly Inhibit Carbonic Anhydrases in Vitro and Possess Intraocular Pressure Lowering Activity in an Animal Model of Glaucoma” (J Med Chem, 2016).

The source made the active and inactive calls. No cut-off for these calls is given here.

Sequence of Carbonic anhydrase 1 (P00915 whole entry): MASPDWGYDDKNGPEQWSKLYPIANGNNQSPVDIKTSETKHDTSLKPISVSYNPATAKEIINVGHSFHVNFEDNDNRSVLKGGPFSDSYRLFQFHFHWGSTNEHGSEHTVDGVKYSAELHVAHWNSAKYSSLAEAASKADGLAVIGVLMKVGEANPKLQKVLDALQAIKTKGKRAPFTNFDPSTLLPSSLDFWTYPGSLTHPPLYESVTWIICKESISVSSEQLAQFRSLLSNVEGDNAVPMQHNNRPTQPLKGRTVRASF

For `CCCCN(CCCC)C(=O)S`, the Ki (commonly a measure of affinity in units of concentration, obtained from inhibition or displacement) at Carbonic anhydrase 2 is over 2000 nM; at Carbonic anhydrase 9 it was 6.8 nM.
As to `O=C(S)NCCc1ccccc1`, the Ki is over 2000 nM at Carbonic anhydrase 1 and 21.5 nM on Carbonic anhydrase 9. Further, the outcome in the experiment on Oryctolagus cuniculus was Active.
As to `CN(Cc1ccccc1)C(=O)S`, the figures for the Ki at Carbonic anhydrase 2, at Carbonic anhydrase 1 and at Carbonic anhydrase 9 were over 2000 nM, over 2000 nM and 11.7 nM, respectively.
Compound `CCOC(=O)CN(C)C(=O)S` gave an inhibition constant Ki on Carbonic anhydrase 9 of 22.1 nM. This lies in the double-digit nanomolar range.
Regarding `CCCCN(CC)C(=O)S`, the Ki at Carbonic anhydrase 2 is over 2000 nM; at Carbonic anhydrase 9 it was 6.2 nM.
As for `COc1ccc(CCNC(=O)S)cc1OC`, at Carbonic anhydrase 9, the Ki turned out to be 15.2 nM.
The same measure, in the same setting: with `O=C(S)N1CCN(c2ccc(F)cc2)CC1` the figure was 6.5 nM.
For the compound `O=C(S)N1CCOCC1`, the Ki on Carbonic anhydrase 2 was over 2000 nM; at Carbonic anhydrase 9 it was 13.5 nM.
The compound `O=C(CN1CCN(C(=O)S)CC1)NC1CCCCC1` had a Ki at Carbonic anhydrase 9 of 14 nM. Also, the result with Oryctolagus cuniculus was Active.
The compound `CC(C)CN(CC(C)C)C(=O)S` gave a Ki on Carbonic anhydrase 9 of 9.2 nM.
As to `CN1CCN(NC(=O)S)CC1`, the Ki on Carbonic anhydrase 1 was over 2000 nM; at Carbonic anhydrase 9, 7.7 nM.
In the case of `CCCN(CCC)C(=O)S`, the Ki at Carbonic anhydrase 1 was over 2000 nM; on Carbonic anhydrase 9, 12.5 nM.
As for `O=C(S)N1CCN(c2cccc(Cl)c2)CC1`, the Ki at Carbonic anhydrase 2 was over 2000 nM; at Carbonic anhydrase 9 it was 4.9 nM.
In the case of `O=C(S)N1CCN(c2ccc(C(F)(F)F)cc2)CC1`, the Ki at Carbonic anhydrase 1 was over 2000 nM; on Carbonic anhydrase 9 it was 11.8 nM.
